Experimental data taken from patent US20140011799A1 (Bristol-Myers Squibb Company, priority 2012, published 2014).

Tests used:
[1] = target: T1, Endothelial lipase (EL) (Homo sapiens, UniProt Q9Y5X9); test: Endothelial lipase (EL) enzymatic assay, fluorescent substrate A10070 in DMPG vesicles; format: biochemical; conditions: EL from conditioned media of HT-1080 cells; compound preincubated 30 min at 37° C; read-out: EL IC50
T1 construct: HT-1080 cells that were transformed using RAGE technology (Athersys) to overexpress endogenous EL; endogenous in cells; conditioned medium used
T1 sequence (Q9Y5X9 21-500): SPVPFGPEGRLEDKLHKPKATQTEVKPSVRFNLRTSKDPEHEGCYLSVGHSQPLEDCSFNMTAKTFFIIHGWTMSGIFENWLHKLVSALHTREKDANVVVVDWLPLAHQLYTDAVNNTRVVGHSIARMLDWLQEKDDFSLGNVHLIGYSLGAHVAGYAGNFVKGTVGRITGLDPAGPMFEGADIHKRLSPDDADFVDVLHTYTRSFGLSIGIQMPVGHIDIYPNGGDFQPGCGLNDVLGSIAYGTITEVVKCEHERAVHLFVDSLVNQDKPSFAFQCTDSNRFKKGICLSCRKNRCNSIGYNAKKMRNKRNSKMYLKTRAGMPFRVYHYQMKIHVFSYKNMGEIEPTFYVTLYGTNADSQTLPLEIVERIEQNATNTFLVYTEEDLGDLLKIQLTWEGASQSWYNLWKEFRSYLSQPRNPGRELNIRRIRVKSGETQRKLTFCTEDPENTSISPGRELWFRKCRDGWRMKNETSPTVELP
In short: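 Substrate A10070 sits in sonicated DMPG vesicles at 0.11 mole fraction. Lipase and compound preincubated 30 min, 37° C, in HEPES pH 8.0 buffer with CaCl2.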

[2] = target: T2, hepatic lipase (HL) (Homo sapiens, UniProt P11150); test: Hepatic lipase (HL) enzymatic assay, fluorescent substrate A10070 in DMPG vesicles; format: biochemical; conditions: HL partially purified from conditioned media of COS cells; compound preincubated 30 min at 37° C; read-out: HL IC50
T2 construct: made in house; host or cells: COS cells (conditioned medium, partially purified)
T2 sequence (P11150 23-499): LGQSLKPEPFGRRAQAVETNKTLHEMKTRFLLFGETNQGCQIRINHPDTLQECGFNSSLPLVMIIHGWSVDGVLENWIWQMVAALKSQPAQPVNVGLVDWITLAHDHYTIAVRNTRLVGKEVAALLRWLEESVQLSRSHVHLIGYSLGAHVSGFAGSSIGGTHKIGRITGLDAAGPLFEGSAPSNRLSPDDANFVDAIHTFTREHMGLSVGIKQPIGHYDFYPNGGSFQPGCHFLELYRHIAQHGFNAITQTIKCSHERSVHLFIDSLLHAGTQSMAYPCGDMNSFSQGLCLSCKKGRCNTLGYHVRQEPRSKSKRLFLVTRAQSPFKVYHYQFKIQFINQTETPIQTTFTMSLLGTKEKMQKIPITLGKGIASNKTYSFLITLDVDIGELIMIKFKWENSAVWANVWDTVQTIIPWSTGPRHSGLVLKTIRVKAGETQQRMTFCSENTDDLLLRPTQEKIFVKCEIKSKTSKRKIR
Protocol: Endothelial lipase (EL) and hepatic lipase (HL) activities were measured using a fluorescent substrate, A10070, (Invitrogen, CA) doped into an artificial vesicle containing DMPG (Avanti Polar Lipids) as the excipient. Vesicles were prepared by combining 571 μL of 29 mM DMPG in a 1:1 mixture of MeOH and CHCl3 with 2000 μL of 1 mM A10070 in a 1:1 mixture of MeOH and CHCl3. The mixture was dried under nitrogen in multiple vials then resuspended in 20 mL total volume of 50 mM HEPES pH 8.0 buffer containing 50 mM NaCl and 0.2 mM EDTA. The sample was allowed to sit at room temperature for 15 min and then was sonicated 3×4 mins on ice with a Branson Sonicator using duty cycle 1. This preparation provides vesicles with a mole fraction of 0.11 for the FRET substrate.
The enzymatic assay was measured using 384-well white Optiplates. Each well contained 20 μL of assay buffer (50 mM HEPES pH 8.0, 50 mM NaCl and 1 mM CaCl2) and 0.25 μL of a DMSO solution containing a compound of interest. EL or HL (10 μL) was added and allowed to incubate with the compound for 30 min at 37° C. The source of EL was conditioned media obtained from HT-1080 cells that were transformed using RAGE technology (Athersys) to overexpress endogenous EL, and HL was partially purified from conditioned media obtained from COS cells overexpressing HL. The reaction was started by the addition of 10 μL of a 1:10 dilution of vesicles. The final total reaction volume was […]. The reaction rates were measured on a Gemini plate reader with an excitation wavelength of 490 nm and an emission wavelength of 530 nm. Readings were taken over a period of 60 minutes, and the slope between 300 and 900 secs of the readout was used to calculate the rate of the reaction.

| SMILES | IC50 [1] [nM] | IC50 [2] [nM] |
| --- | --- | --- |
| CCCOCCCNC(=O)Cc1nnc(C(c2nc3ccc(-c4ccc(C(=O)N5CCOCC5)cc4)cc3s2)S(C)(=O)=O)o1 (stereo not drawn) [Example 175, 2-(5-((Methylsulfonyl)(6-(4-(4-morpholinylcarbonyl)phenyl)-1,3-benzothiazol-2-yl)methyl)-1,3,4-oxadiazol-2-yl)-N-(3-propoxypropyl)acetamide] | 12 | 89 |
| COCc1ccc(-c2ccc3nc(C(c4nnc(CNS(N)(=O)=O)o4)S(=O)(=O)Cc4ccccc4F)sc3c2)cc1 (stereo not drawn) [Example 240, N-({5-[(2-fluorophenyl)methanesulfonyl ({6-[4-(methoxymethyl)phenyl]-1,3-benzothiazol-2-yl})methyl]-1,3,4-oxadiazol-2-yl}methyl) aminosulfonamide] | 2 | 3 |
| NCCS(=O)(=O)C(c1nnc(CC2SC(=O)NC2=O)o1)c1nc2ccc(-c3ccc(C(=O)N4CCOCC4)cc3)cc2s1 (stereo not drawn) [Example 185, 5-{[5-([(2-aminoethyl)sulfonyl]{6-[4-(4-morpholinylcarbonyl)phenyl]-1,3-benzothiazol-2-yl}methyl)-1,3,4-oxadiazol-2-yl]methyl}-1,3-thiazolidine-2,4-dione] | < 10 | 70 |
| CC1(Cc2nnc(C(c3nc4ccc(-c5cccc(C(=O)N6CCOCC6)c5)cc4s3)S(C)(=O)=O)o2)NC(=O)NC1=O (stereo not drawn) [Example 210, 5-({5-[methanesulfonyl({6-[3-(morpholine-4-carbonyl)phenyl]-1,3-benzothiazol-2-yl})methyl]-1,3,4-oxadiazol-2-yl}methyl)-5-methyl-imidazolidine-2,4-dione] | 9 | 365 |
| NS(=O)(=O)NCc1nnc(C(c2nc3ccc(-c4cccc(Cl)c4)cc3s2)S(=O)(=O)Cc2ccccc2)o1 (stereo not drawn) [Example 129, N-((5-((benzylsulfonyl)(6-(3-chlorophenyl)-1,3-benzothiazol-2-yl)methyl)-1,3,4-oxadiazol-2-yl)methyl) sulfamide] | < 10 | < 10 |
| COC1(C)CN(C(=O)c2cccc(-c3ccc4nc(C(c5nnc(CC6(C)NC(=O)NC6=O)o5)S(C)(=O)=O)sc4c3)c2)C1 (stereo not drawn) [Example 222, 5-({5-[methanesulfonyl({6-[3-(3-methoxy-3-methyl-azetidine-1-carbonyl)phenyl]-1,3-benzothiazol-2-yl})methyl]-1,3,4-oxadiazol-2-yl}methyl)-5-methyl-imidazolidine-2,4-dione] | 8 | 162 |
| CS(=O)(=O)C(c1nnc(CC2SC(=O)NC2=O)o1)c1nc2cc(C(F)(F)F)c(-c3ccccc3)cc2s1 (stereo not drawn) [Example 164, 5-((5-((methylsulfonyl)(6-phenyl-5-(trifluoromethyl)-1,3-benzothiazol-2-yl)methyl)-1,3,4-oxadiazol-2-yl)methyl)-1,3-thiazolidine-2,4-dione] | < 10 | 22 |
| C#CCNC(=O)c1cccc(-c2ccc3nc(C(c4nnc(CNS(N)(=O)=O)o4)S(C)(=O)=O)sc3c2)c1 (stereo not drawn) [Example 265, 3-{2-[methanesulfonyl({5-[(sulfamoylamino)methyl]-1,3,4-oxadiazol-2-yl})methyl]-1,3-benzothiazol-6-yl}-N-(prop-2-yn-1-yl) benzamide] | 6 | 19 |
| NS(=O)(=O)NCc1nnc(C(c2nc3ccc(-c4ccc(F)cc4)cc3s2)S(=O)(=O)Cc2ccccc2)o1 (stereo not drawn) [Example 127, N-((5-((benzylsulfonyl)(6-(4-fluorophenyl)-1,3-benzothiazol-2-yl)methyl)-1,3,4-oxadiazol-2-yl)methyl) sulfamide] | < 10 | < 10 |
| CS(=O)(=O)C(c1nnc(CNS(N)(=O)=O)o1)c1nc2ccc(-c3cccc(C(=O)N4CC(O)C4)c3)cc2s1 (stereo not drawn) [Example 252, N-{[5-({6-[3-(3-hydroxyazetidine-1-carbonyl)phenyl]-1,3-benzothiazol-2-yl} (methanesulfonyl)methyl)-1,3,4-oxadiazol-2-yl]methyl}aminosulfonamide] | 10 | 22 |
| NCCS(=O)(=O)C(c1nnc(CC2SC(=O)NC2=O)o1)c1nc2cc(F)c(-c3ccccc3)cc2s1 (stereo not drawn) [Example 186, 5-((5-(((2-aminoethyl)sulfonyl)(5-fluoro-6-phenyl-1,3-benzothiazol-2-yl)methyl)-1,3,4-oxadiazol-2-yl)methyl)-1,3-thiazolidine-2,4-dione] | < 10 | 49 |
| NS(=O)(=O)NCc1nnc(C(c2nc3ccc(-c4cnn(-c5ccc(F)cc5)c4)cc3s2)S(=O)(=O)Cc2ccccc2)o1 (stereo not drawn) [Example 138, N-((5-((benzylsulfonyl)(6-(1-(4-fluorophenyl)-1H-pyrazol-4-yl)-1,3-benzothiazol-2-yl)methyl)-1,3,4-oxadiazol-2-yl)methyl)sulfamide] | < 10 | < 10 |
| NS(=O)(=O)NCc1nnc(C(c2nc3ccc(-c4ccc(Cl)c(Cl)c4)cc3s2)S(=O)(=O)Cc2ccccc2)o1 (stereo not drawn) [Example 148, N-((5-((benzylsulfonyl)(6-(3,4-dichlorophenyl)-1,3-benzothiazol-2-yl)methyl)-1,3,4-oxadiazol-2-yl)methyl)sulfamide] | < 10 | < 10 |
| COCCS(=O)(=O)C(c1nnc(CC(=O)NC2CC2)o1)c1nc2ccc(-c3ccc(F)nc3)cc2s1 (stereo not drawn) [Example 250, N-cyclopropyl-2-(5-{[6-(6-fluoropyridin-3-yl)-1,3-benzothiazol-2-yl] (2-methoxyethanesulfonyl)methyl}-1,3,4-oxadiazol-2-yl)acetamide] | 194 | 306 |
| CC(C)Cn1cc(-c2cc(F)c3nc(C(c4nnc(CC5SC(=O)NC5=O)o4)S(=O)(=O)Cc4ccccc4)sc3c2)cn1 (stereo not drawn) [Example 165, 5-((5-((benzylsulfonyl)(4-fluoro-6-(1-isobutyl-1H-pyrazol-4-yl)-1,3-benzothiazol-2-yl)methyl)-1,3,4-oxadiazol-2-yl)methyl)-1,3-thiazolidine-2,4-dione] | < 10 | 24 |
| Cn1ccc(-c2ccc3sc(C(c4nnc(CNS(N)(=O)=O)o4)S(C)(=O)=O)nc3c2)cc1=O (stereo not drawn) [Example 245, N-[(5-{methanesulfonyl[5-(1-methyl-2-oxo-1,2-dihydropyridin-4-yl)-1,3-benzothiazol-2-yl]methyl}-1,3,4-oxadiazol-2-yl)methyl]aminosulfonamide] | 8 | 72 |
| COC1CN(C(=O)c2cccc(-c3ccc4nc(C(c5nnc(CNS(N)(=O)=O)o5)S(C)(=O)=O)sc4c3)c2)C1 (stereo not drawn) [Example 267, N-({5-[methanesulfonyl({6-[3-(3-methoxyazetidine-1-carbonyl)phenyl]-1,3-benzothiazol-2-yl})methyl]-1,3,4-oxadiazol-2-yl}methyl)aminosulfonamide] | 14 | 41 |
| COC(=O)NCCS(=O)(=O)C(c1nnc(CNS(N)(=O)=O)o1)c1nc2ccc(-c3ccccc3)cc2s1 (stereo not drawn) [Example 122, methyl (2-(((6-phenyl-1,3-benzothiazol-2-yl)(5-((sulfamoylamino)methyl)-1,3,4-oxadiazol-2-yl)methyl)sulfonyl)ethyl)carbamate] | < 10 | < 10 |
